Assays:
[1] = biological target: T1, human Nav1.1 (Homo sapiens, UniProt P35498); experiment: Amplification of Nav1.1-derived voltage-dependent sodium current (Nav1.1 current), cell line stably expressing human Nav1.1, automated patch clamp; format: cell-based; details: for activation at 10 µM / activation at 1 µM: read-out: Nav1.1 current amplification rate (%)
T1 construct: host or cells: HEK293
Method in brief: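 Automated whole-cell voltage-clamp recordings used HEK293 cells stably expressing human Nav1.1, keeping only cells with >500 pA current, with currents evoked by ramp voltage. Compounds were applied in extracellular fluid with 1% DMSO, and amplification (%) was computed from peak current or AUC after versus before addition.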

[2] = biological target: T2, human Nav1.5 (Homo sapiens, UniProt Q14524); experiment: Amplification of Nav1.5-derived voltage-dependent sodium current (Nav1.5 current), cell line stably expressing human Nav1.5, automated patch clamp; format: cell-based; details: for activation at 10 µM / activation at 1 µM: read-out: Nav1.5 current amplification rate (%)
T2 construct: expressed in transfected cells; host or cells: CHO-K1 (T-REx System, ThermoFisher Scientific)
Procedure: Test 2: Evaluation of the Amplification in Nav1.5-Derived Voltage-Dependent Sodium Current (Nav1.5 Current) by Using a Cell Line Stably Expressing Human Nav1.5
A CHO-K1 cell line (Chinese hamster ovary) stably expressing human Nav1.5 (Gene Bank Accession No: P000326.2) was obtained by using purchased T-Rex System (ThermoFisher Scientific, USA), and used for the present test. The effect of test compounds on the amplification of Nav1.5 current was evaluated by using a cell line stably expressing human Nav1.5 and HTS automated patch clamp system, similarly in the method using Nav1.1. In other words, test compounds were added in an extracellular fluid which contained 1% DMSO and 500 nmol/L Tetrodotoxin (TTX), and evaluated as a change of the peak value of Nav1.5 current and the area under the curve (AUC). The induction and the measurement of Nav1.5 current, the pharmacologic effect on Nav1.5 current, and a method for pharmacological evaluation were carried out by the same method as in Nav1.1.

[3] = 10 μmol/L compound, change of the area under the curve of Nav1.1 current (Test Result 1)
[4] = 10 μmol/L compound, change of the area under the curve of Nav1.5 current (Test Result 1)
[5] = compound 3 μmol/L, HEK293 stably expressing human Nav1.1
[6] = compound 3 μmol/L, CHO-K1 stably expressing human Nav1.5
[7] = compound 1 μmol/L, HEK293 stably expressing human Nav1.1
[8] = compound 1 μmol/L, CHO-K1 stably expressing human Nav1.5

T2 sequence (Q14524 1-2015 isoform Q14524-2): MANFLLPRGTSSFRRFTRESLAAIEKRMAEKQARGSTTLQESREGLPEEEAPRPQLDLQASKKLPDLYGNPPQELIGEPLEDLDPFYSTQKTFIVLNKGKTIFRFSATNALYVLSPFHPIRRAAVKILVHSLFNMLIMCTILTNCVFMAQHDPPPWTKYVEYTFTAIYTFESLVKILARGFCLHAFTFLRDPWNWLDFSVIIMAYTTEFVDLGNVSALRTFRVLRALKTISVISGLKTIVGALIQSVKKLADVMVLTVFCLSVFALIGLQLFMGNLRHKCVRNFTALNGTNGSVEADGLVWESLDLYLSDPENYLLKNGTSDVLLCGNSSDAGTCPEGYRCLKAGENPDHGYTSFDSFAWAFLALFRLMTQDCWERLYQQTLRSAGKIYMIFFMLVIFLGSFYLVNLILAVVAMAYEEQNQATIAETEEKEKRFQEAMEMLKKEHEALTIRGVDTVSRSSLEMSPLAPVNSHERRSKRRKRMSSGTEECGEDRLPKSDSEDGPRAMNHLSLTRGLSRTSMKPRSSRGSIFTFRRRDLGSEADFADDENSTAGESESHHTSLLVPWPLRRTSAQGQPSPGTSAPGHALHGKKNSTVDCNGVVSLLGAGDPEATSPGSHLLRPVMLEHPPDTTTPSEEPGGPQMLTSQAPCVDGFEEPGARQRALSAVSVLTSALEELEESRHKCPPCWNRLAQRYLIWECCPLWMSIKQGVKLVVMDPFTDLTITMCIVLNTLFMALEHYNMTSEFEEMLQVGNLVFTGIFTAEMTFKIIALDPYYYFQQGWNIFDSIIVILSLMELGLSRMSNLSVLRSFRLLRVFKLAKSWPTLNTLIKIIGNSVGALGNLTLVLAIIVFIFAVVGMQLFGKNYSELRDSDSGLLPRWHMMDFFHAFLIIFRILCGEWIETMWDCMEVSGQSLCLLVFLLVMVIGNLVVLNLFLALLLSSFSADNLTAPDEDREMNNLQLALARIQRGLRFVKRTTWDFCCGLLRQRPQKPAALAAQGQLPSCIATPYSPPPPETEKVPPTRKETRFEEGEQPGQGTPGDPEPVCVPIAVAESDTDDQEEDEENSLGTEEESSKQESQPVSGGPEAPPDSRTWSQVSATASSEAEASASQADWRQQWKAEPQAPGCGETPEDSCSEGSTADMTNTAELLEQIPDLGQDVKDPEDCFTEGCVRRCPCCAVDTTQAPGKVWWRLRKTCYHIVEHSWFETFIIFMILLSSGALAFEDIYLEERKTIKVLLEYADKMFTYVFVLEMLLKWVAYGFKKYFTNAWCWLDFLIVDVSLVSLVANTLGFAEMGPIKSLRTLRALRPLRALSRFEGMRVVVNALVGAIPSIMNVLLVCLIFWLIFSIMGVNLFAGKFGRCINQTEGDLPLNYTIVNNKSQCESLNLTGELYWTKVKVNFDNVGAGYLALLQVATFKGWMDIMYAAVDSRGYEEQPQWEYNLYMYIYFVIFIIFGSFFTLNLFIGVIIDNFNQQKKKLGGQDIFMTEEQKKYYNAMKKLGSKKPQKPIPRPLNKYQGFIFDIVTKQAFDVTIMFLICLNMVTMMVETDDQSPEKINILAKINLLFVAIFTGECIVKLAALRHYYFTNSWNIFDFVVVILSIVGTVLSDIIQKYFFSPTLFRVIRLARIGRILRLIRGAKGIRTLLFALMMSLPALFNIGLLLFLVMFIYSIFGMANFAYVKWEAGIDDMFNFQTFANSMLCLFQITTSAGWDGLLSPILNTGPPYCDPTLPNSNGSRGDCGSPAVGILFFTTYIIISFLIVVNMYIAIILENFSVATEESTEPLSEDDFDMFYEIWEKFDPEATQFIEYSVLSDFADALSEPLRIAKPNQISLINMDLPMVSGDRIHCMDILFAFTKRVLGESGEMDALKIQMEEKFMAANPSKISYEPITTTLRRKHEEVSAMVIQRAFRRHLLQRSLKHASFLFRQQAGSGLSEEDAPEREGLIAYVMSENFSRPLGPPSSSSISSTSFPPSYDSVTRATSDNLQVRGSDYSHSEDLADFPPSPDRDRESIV

## O=C(Cn1nc(N2CCC3C(C2)C3(F)F)ccc1=O)Nc1ccc2ocnc2c1 (centres unmarked) [Example 161]
[1]; [3]
  activation at 10 µM: 21%
[2]; [4]
  activation at 10 µM: -1%

## CC1CC=C(c2ccc(=O)n(CC(=O)N3C[C@H](C)N(c4cccnc4)C[C@H]3C)n2)CC1 (some centres unmarked) [Example 417]
[1]; [5]
  Nav1.1 current amplification rate (%): 23%
[2]; [6]
  Nav1.5 current amplification rate (%): 1%

## CC1CCN(c2ccc(=O)n(CC(=O)Nc3ccc4nsnc4c3)n2)CC1 [Example 95]
[1]; [3]
  Nav1.1 current amplification rate (%): 221%
[2]; [4]
  Nav1.5 current amplification rate (%): 18%

## CC1CC=C(c2ccc(=O)n(CC(=O)N3CCC(c4ccncc4)CC3)n2)CC1 (racemic) [Example 259]
[1]; [3]
  Nav1.1 current amplification rate (%): 71%
[2]; [4]
  Nav1.5 current amplification rate (%): 2%

## CC1(C)CC=C(c2ccc(=O)n(CC(=O)N3CCC4(CCOCC4)CC3)n2)CC1 [Example 441]
[1]; [3]
  Nav1.1 current amplification rate (%): 30%
[2]; [4]
  Nav1.5 current amplification rate (%): 1%

## CC1CC=C(c2ccc(=O)n(CC(=O)Nc3ccc4oc(C(C)(C)O)nc4c3)n2)CC1 (racemic) [Example 327]
[1]; [5]
  Nav1.1 current amplification rate (%): 124%
[2]; [6]
  Nav1.5 current amplification rate (%): 9%

## O=C(Cn1nc(C2=CCCCC2)ccc1=O)N1CCc2c(Cn3ccnc3)cccc21 [Example 515]
[1]; [7]
  activation at 1 µM: 255%
[2]; [8]
  activation at 1 µM: 287%

## O=C(Cn1nc(N2CCCCCC2)ccc1=O)Nc1ccnc(C(F)(F)F)c1 [Example 120]
[1]; [3]
  activation at 10 µM: 176%
[2]; [4]
  activation at 10 µM: 5%

## CC1CC=C(c2ccc(=O)n(CC(=O)N3CCN(c4nccs4)CC3)n2)CC1 (centres unmarked) [Example 414]
[1]; [3]
  Nav1.1 current amplification rate (%): 40%
[2]; [4]
  Nav1.5 current amplification rate (%): −2%

## O=C(Cn1nc(C2=CCC(C(F)(F)F)CC2)ccc1=O)Nc1ccc2ocnc2c1 (centres unmarked) [Example 446]
[1]; [3]
  Nav1.1 current amplification rate (%): 333%
[2]; [4]
  Nav1.5 current amplification rate (%): 10%

## CC1CC=C(c2ccc(=O)n(CC(=O)Nc3ccc4oc(CN5CCOCC5)nc4c3)n2)CC1 (racemic) [Example 331]
[1]; [5]
  Nav1.1 current amplification rate (%): 64%
[2]; [6]
  Nav1.5 current amplification rate (%): 9%

## CC1(C)CC=C(c2ccc(=O)n(CC(=O)N3CCc4c(C5CN(C(=O)CO)C5)cccc43)n2)CC1 [Example 437]
[1]; [5]
  Nav1.1 current amplification rate (%): 582%
[2]; [6]
  Nav1.5 current amplification rate (%): 194%

## Cc1cc(=O)n(CC(=O)Nc2ccc3ocnc3c2)nc1N1CCC(C)CC1 [Example 201]
[1]; [3]
  activation at 10 µM: 139%
[2]; [4]
  activation at 10 µM: 1%

## CC1(C)CC=C(c2ccc(=O)n(CC(=O)Nc3ccc4c(c3)OCC4)n2)CC1 [Example 426]
[1]; [3]
  Nav1.1 current amplification rate (%): 244%
[2]; [4]
  Nav1.5 current amplification rate (%): 20%

## O=C(Cn1nc(C2=CCCC2)ccc1=O)N1CCc2c(-c3cccnc3)cccc21 [Example 524]
[1]; [7]
  activation at 1 µM: 143%
[2]; [8]
  activation at 1 µM: 5%

## CC1CCN(c2ccc(=O)n(CC(=O)Nc3ccc4c(c3)NC(=O)CC4)n2)CC1 [Example 181]
[1]; [3]
  activation at 10 µM: 118%
[2]; [4]
  activation at 10 µM: 4%

## O=C(Cn1nc(N2CCC3(CCC3)CC2)ccc1=O)Nc1ccc2scnc2c1 [Example 127]
[1]; [3]
  activation at 10 µM: 229%
[2]; [4]
  activation at 10 µM: 58%

## COc1cc(NC(=O)Cn2nc(N3CCC(C)CC3)ccc2=O)ccn1 [Example 74]
[1]; [3]
  Nav1.1 current amplification rate (%): 70%
[2]; [4]
  Nav1.5 current amplification rate (%): −2%

## CC1CC=C(c2ccc(=O)n(CC(=O)Nc3ccn4cc(C(F)(F)F)nc4c3)n2)CC1 (centres unmarked) [Example 421]
[1]; [3]
  Nav1.1 current amplification rate (%): 199%
[2]; [4]
  Nav1.5 current amplification rate (%): 34%

## CC1CC=C(c2ccc(=O)n(CC(=O)N3CC(C)N(c4cccnc4)C(C)C3)n2)CC1 (centres unmarked) [Example 416]
[1]; [3]
  Nav1.1 current amplification rate (%): 383%
[2]; [4]
  Nav1.5 current amplification rate (%): 86%

## CC1CCN(c2ccc(=O)n(CC(=O)N3CCc4cc(N5CCCC5=O)ccc43)n2)CC1 [Example 219]
[1]; [3]
  activation at 10 µM: 97%
[2]; [4]
  activation at 10 µM: 12%

## COc1cc(C2=CCC(C)(C)CC2)nn(CC(=O)N2CCc3c(N4CCOCC4)cccc32)c1=O [Example 468]
[1]; [7]
  Nav1.1 current amplification rate (%): 275%
[2]; [8]
  Nav1.5 current amplification rate (%): 75%

## O=C(Cn1nc(N2CCC3(CCC3)CC2)ccc1=O)Nc1ccc2c(c1)COC2 [Example 190]
[1]; [3]
  activation at 10 µM: 100%
[2]; [4]
  activation at 10 µM: 12%

## O=C(Cn1nc(N2CCC3(CCCC3)C2)cc(N2CCCC2)c1=O)Nc1ccc2ocnc2c1 [Example 206]
[1]; [3]
  activation at 10 µM: 154%
[2]; [4]
  activation at 10 µM: 33%

## CC1CCN(c2ccc(=O)n(CC(=O)Nc3cccc(C#N)c3)n2)CC1 [Example 55]
[1]; [3]
  Nav1.1 current amplification rate (%): 111%
[2]; [4]
  Nav1.5 current amplification rate (%): 27%

## Cc1noc2cc(NC(=O)Cn3nc(C4=CCC(C)CC4)ccc3=O)ccc12 (racemic) [Example 240]
[1]; [3]
  Nav1.1 current amplification rate (%): 241%
[2]; [4]
  Nav1.5 current amplification rate (%): 174%

## Cc1c(N2CCC(C)CC2)nn(CC(=O)Nc2ccc(C#N)nc2)c(=O)c1C [Example 100]
[1]; [3]
  activation at 10 µM: 197%
[2]; [4]
  activation at 10 µM: 56%

## COc1ccc2c(c1)CCN2C(=O)Cn1nc(N2CCC(C)CC2)ccc1=O [Example 183]
[1]; [3]
  activation at 10 µM: 95%
[2]; [4]
  activation at 10 µM: 0%

## COCOc1cccc2c1CCN2C(=O)Cn1nc(C2=CCC(C)(C)CC2)ccc1=O [Example 435]
[1]; [3]
  Nav1.1 current amplification rate (%): 262%
[2]; [4]
  Nav1.5 current amplification rate (%): 14%

## Cc1c(N2CCC3(CCC3)C2)nn(CC(=O)N2CCc3c(N4CCOCC4)cccc32)c(=O)c1C [Example 226]
[1]; [3]
  activation at 10 µM: 319%
[2]; [4]
  activation at 10 µM: 71%

## CC1CCN(c2ccc(=O)n(CC(=O)Nc3ccc4ncoc4c3)n2)CC1 [Example 73]
[1]; [3]
  Nav1.1 current amplification rate (%): 92%
[2]; [4]
  Nav1.5 current amplification rate (%): 1%

## CC1CC=C(c2ccc(=O)n(CC(=O)N3CCN(c4cncc(F)c4)CC3)n2)CC1 (racemic) [Example 263]
[1]; [3]
  Nav1.1 current amplification rate (%): 342%
[2]; [4]
  Nav1.5 current amplification rate (%): 32%

## O=C(Cn1nc(N2CCC3(CCC3)CC2)ccc1=O)N1CCc2cnccc21 [Example 185]
[1]; [3]
  activation at 10 µM: 22%
[2]; [4]
  activation at 10 µM: 2%

## COC(=O)c1ccc(NC(=O)Cn2nc(N3CCC(C)CC3)ccc2=O)cn1 [Example 182]
[1]; [3]
  activation at 10 µM: 32%
[2]; [4]
  activation at 10 µM: 17%

## CC1CCC(c2ccc(=O)n(CC(=O)N3CCc4c(N5CCOCC5)cccc43)n2)CC1 (mixture of isomers) [Example 472]
[1]; [3]
  Nav1.1 current amplification rate (%): 387%
[2]; [4]
  Nav1.5 current amplification rate (%): 56%

## CC1CCN(c2ccc(=O)n(CC(=O)Nc3ccc4c(c3)OCC4)n2)CC1 [Example 170]
[1]; [3]
  activation at 10 µM: 107%
[2]; [4]
  activation at 10 µM: 1%

## O=C(Cn1nc(N2CCCC3(CCC3)C2)ccc1=O)Nc1ccc2scnc2c1 [Example 133]
[1]; [3]
  activation at 10 µM: 285%
[2]; [4]
  activation at 10 µM: 12%

## CC1(C)CC=C(c2ccc(=O)n(CC(=O)N3CCN(c4cccnc4)CC3)n2)CC1 [Example 440]
[1]; [3]
  Nav1.1 current amplification rate (%): 196%
[2]; [4]
  Nav1.5 current amplification rate (%): 7%

## Cc1cc(=O)n(CC(=O)Nc2ccc3ocnc3c2)nc1N1CCC2(CCC2)C1 [Example 205]
[1]; [3]
  activation at 10 µM: 235%
[2]; [4]
  activation at 10 µM: 20%

## Cc1nc2cc(NC(=O)Cn3nc(N4CCC(C)CC4)ccc3=O)cc(Cl)c2o1 [Example 215]
[1]; [3]
  activation at 10 µM: 183%
[2]; [4]
  activation at 10 µM: 18%

## Cc1cn2ccc(NC(=O)Cn3nc(N4CCC(C)CC4)ccc3=O)cc2n1 [Example 174]
[1]; [3]
  activation at 10 µM: 75%
[2]; [4]
  activation at 10 µM: 4%

## COc1cc(=O)n(CC(=O)N2CCc3c(N4CCOCC4)cccc32)nc1C1=CCC(C)(C)CC1 [Example 470]
[1]; [3]
  Nav1.1 current amplification rate (%): 522%
[2]; [4]
  Nav1.5 current amplification rate (%): 131%

## Cc1cc(C2=CCC(C)(C)CC2)nn(CC(=O)Nc2ccn3ccnc3c2)c1=O [Example 460]
[1]; [3]
  Nav1.1 current amplification rate (%): 221%
[2]; [4]
  Nav1.5 current amplification rate (%): 46%

— patent US20220347175A1, “PYRIDAZINONE DERIVATIVE” (Sumitomo Dainippon Pharma Co., Ltd., priority 2018, published 2022)
